Results from US9497965B2, “Pesticidal compounds” (Syngenta Participations AG, priority 2011, dated 2016).

Row | SMILES | melting point
1 | N#Cc1cc(F)c(C2(CNC(=O)c3ccccc3C(F)(F)F)CC2)c(F)c1 [A.57, N-[[1-(4-cyano-2,6-difluoro-phenyl)cyclopropyl]methyl]-2-(trifluoromethyl)benzamide] | 100 to 102 °C
2 | O=C(NCC1(c2c(Cl)cc(Cl)cc2Cl)CC1)c1ncccc1C(F)(F)F [A.29, N-[[1-(2,4,6-trichlorophenyl)cyclopropyl]methyl]-3-(trifluoromethyl)pyridine-2-carboxamide] | 142 to 144 °C
